For orientation: IC50 means the midpoint of a concentration-inhibition curve. Low readings indicate higher potency, high ones lower potency.

In this experiment the target is T1, Human CD73 (amino acid residues 27-549) (Homo sapiens, UniProt P21589).
T1 construct: Human CD73 (amino acid residues 27-549); His tag (N); made in house; host or cells: E. coli
T1 sequence (P21589 27-549): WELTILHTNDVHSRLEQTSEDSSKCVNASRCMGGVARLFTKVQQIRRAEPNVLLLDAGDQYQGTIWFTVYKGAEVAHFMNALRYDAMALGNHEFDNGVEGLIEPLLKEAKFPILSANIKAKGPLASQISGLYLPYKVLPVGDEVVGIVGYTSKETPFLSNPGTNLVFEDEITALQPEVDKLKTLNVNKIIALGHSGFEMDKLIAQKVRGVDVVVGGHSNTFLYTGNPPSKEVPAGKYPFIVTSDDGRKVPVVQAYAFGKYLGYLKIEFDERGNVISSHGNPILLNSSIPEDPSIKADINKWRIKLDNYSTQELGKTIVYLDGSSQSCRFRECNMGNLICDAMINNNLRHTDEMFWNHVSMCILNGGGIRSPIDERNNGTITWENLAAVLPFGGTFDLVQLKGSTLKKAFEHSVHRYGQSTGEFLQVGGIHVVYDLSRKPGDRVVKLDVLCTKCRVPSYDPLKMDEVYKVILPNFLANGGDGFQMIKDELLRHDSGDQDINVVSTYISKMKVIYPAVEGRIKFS
Nature of the experiment: CD73 enzymatic assay (luciferase-based indirect assay, CellTiter-Glo). Type of experiment: biochemical. The settings on record: 0.4 nM CD73, 150 μM AMP, 1 hour at room temperature. As for the experimental part: CD73 enzymatic activity was measured in a luciferase-based indirect assay using CellTiter-Glo® system from Promega. The luciferase reaction in the presence of ATP is inhibited by AMP, a primary substrate of CD73. Addition of CD73 enzyme to the reaction converts AMP to adenosine, and release the inhibition, producing a luminescent signal. Inhibition of CD73 leads to the decrease of this luminescent signal.
Human CD73 (amino acid residues 27-549) with N-Terminal His tag was purified in E. coli. All the assay components were prepared in 50 mM HEPEs buffer (pH 7.4) with 0.01% Tween® 20. The CD73 enzymatic assay was performed using 0.4 nM CD73 and 150 μM AMP. 9.5 μL of CD73 protein and 9.5 μL of AMP were added to the wells of a 384 well plate containing 1 μL of various concentrations of test compound or DMSO vehicle and incubated for 1 hour at room temperature. 16 wells containing CD73, AMP and 5% DMSO served as high control. 16 wells containing AMP and 5% DMSO served as low control. Enzymatic reaction was stopped and AMP level was measured indirectly by adding 5 μL of CellTiter-Glo® 2.0 reagent and 5 μL of ATP with a final concentration of 1 μM. Following incubation of the plate at room temperature for 30 minutes, luminescent signal was read on a Tecan plate reader. The percentage inhibition at individual concentrations relative to high and low controls was calculated. The data were analyzed by using nonlinear regression to generate IC50 values.
For orientation: In ATP-based viability assays light output follows the ATP content of the culture.
`CCCCOC(=O)N[C@@H]1CCN(c2cn[nH]c(=O)c2Cl)C1` [P-0001, butyl (R)-(1-(5-chloro-6-oxo-1,6-dihydropyridazin-4-yl)pyrrolidin-3-yl)carbamate]: the IC50 lay within 0.001 to 10 µM.
With `CC(C)(C)OC(=O)N[C@H]1CCN(c2cn[nH]c(=O)c2Cl)C1` [P-0002, tert-butyl (S)-(1-(5-chloro-6-oxo-1,6-dihydropyridazin-4-yl)pyrrolidin-3-yl)carbamate] the figure was 10 to 100 µM.
Take `O=C(NC1CCCCCC1)N[C@@H]1CCN(c2cn[nH]c(=O)c2Cl)C1` [P-0003, (R)-1-(1-(5-chloro-6-oxo-1,6-dihydropyridazin-4-yl)pyrrolidin-3-yl)-3-cycloheptylurea]: the IC50 was in the range of 0.001 to 10 µM.
With `O=C(NCC1CCCC1)N[C@@H]1CCN(c2cn[nH]c(=O)c2Cl)C1` [P-0004, (R)-1-(1-(5-chloro-6-oxo-1,6-dihydropyridazin-4-yl)pyrrolidin-3-yl)-3-(cyclopentylmethyl)urea] the figure was 0.001 to 10 µM.
To `O=C(NCC1CCOC1)N[C@@H]1CCN(c2cn[nH]c(=O)c2Cl)C1` (stereo partly drawn) [P-0005, 1-((R)-1-(5-chloro-6-oxo-1,6-dihydropyridazin-4-yl)pyrrolidin-3-yl)-3-((tetrahydrofuran-3-yl)methyl)urea] belongs 0.001 to 10 µM; to `O=C(NCC1CCS(=O)(=O)C1)N[C@@H]1CCN(c2cn[nH]c(=O)c2Cl)C1` (stereo partly drawn) [P-0006, 1-((R)-1-(5-chloro-6-oxo-1,6-dihydropyridazin-4-yl)pyrrolidin-3-yl)-3-((1,1-dioxidotetrahydrothiophen-3-yl)methyl)urea], 10 to 100 µM; to `O=C(NCC1CCCCC1)N[C@@H]1CCN(c2cn[nH]c(=O)c2Cl)C1` [P-0007, (R)-1-(1-(5-chloro-6-oxo-1,6-dihydropyridazin-4-yl)pyrrolidin-3-yl)-3-(cyclohexylmethyl)urea], 0.001 to 10 µM.
To `O=C(NCC1CCOCC1)N[C@@H]1CCN(c2cn[nH]c(=O)c2Cl)C1` [P-0008, (R)-1-(1-(5-chloro-6-oxo-1,6-dihydropyridazin-4-yl)pyrrolidin-3-yl)-3-((tetrahydro-2H-pyran-4-yl)methyl)urea] belongs 0.001 to 10 µM; to `O=C(Nc1cccnc1)N[C@@H]1CCN(c2cn[nH]c(=O)c2Cl)C1` [P-0009, (R)-1-(1-(5-chloro-6-oxo-1,6-dihydropyridazin-4-yl)pyrrolidin-3-yl)-3-(pyridin-3-yl)urea], 10 to 100 µM; to `O=C(N[C@@H]1CCN(c2cn[nH]c(=O)c2Cl)C1)Oc1ccccc1` [P-0010, phenyl (R)-(1-(5-chloro-6-oxo-1,6-dihydropyridazin-4-yl)pyrrolidin-3-yl)carbamate], 0.001 to 10 µM.
On to `CC(C)(C)OC(=O)N[C@@H]1CCN(c2cn[nH]c(=O)c2Br)C1` [P-0011, tert-butyl (R)-(1-(5-bromo-6-oxo-1,6-dihydropyridazin-4-yl)pyrrolidin-3-yl)carbamate], for which the half-maximal inhibitory concentration (IC50) was in the range of 0.001 to 10 µM.
With `Cc1occc1NC(=O)N[C@@H]1CCN(c2cn[nH]c(=O)c2Cl)C1` [P-0012, (R)-1-(1-(5-chloro-6-oxo-1,6-dihydropyridazin-4-yl)pyrrolidin-3-yl)-3-(2-methylfuran-3-yl)urea] the figure was 0.001 to 10 µM.
With `O=C(Nc1ccsc1)N[C@@H]1CCN(c2cn[nH]c(=O)c2Cl)C1` [P-0013, (R)-1-(1-(5-chloro-6-oxo-1,6-dihydropyridazin-4-yl)pyrrolidin-3-yl)-3-(thiophen-3-yl)urea], the IC50 was in the range of 0.001 to 10 µM.
The molecule `Cn1cc(NC(=O)N[C@@H]2CCN(c3cn[nH]c(=O)c3Cl)C2)cn1` [P-0014, (R)-1-(1-(5-chloro-6-oxo-1,6-dihydropyridazin-4-yl)pyrrolidin-3-yl)-3-(1-methyl-1H-pyrazol-4-yl)urea] returned a concentration for half-maximal inhibition (IC50) of 10 to 100 µM.
With `COCCCNC(=O)N[C@@H]1CCN(c2cn[nH]c(=O)c2Cl)C1` [P-0016, (R)-1-(1-(5-chloro-6-oxo-1,6-dihydropyridazin-4-yl)pyrrolidin-3-yl)-3-(3-methoxypropyl)urea] the figure was 10 to 100 µM.
`O=C(NC1CCCC1)N[C@H]1CCN(c2cn[nH]c(=O)c2Cl)C1` [P-0023, (S)-1-(1-(5-chloro-6-oxo-1,6-dihydropyridazin-4-yl)pyrrolidin-3-yl)-3-cyclopentylurea] returned an IC50 of 10 to 100 µM.
To `O=C(NC1CCN(C(=O)C(F)(F)F)CC1)N[C@H]1CCN(c2cn[nH]c(=O)c2Cl)C1` [P-0024, (S)-1-(1-(5-chloro-6-oxo-1,6-dihydropyridazin-4-yl)pyrrolidin-3-yl)-3-(1-(2,2,2-trifluoroacetyl)piperidin-4-yl)urea] belongs 10 to 100 µM; to `O=C(N[C@H]1CCN(c2cn[nH]c(=O)c2Cl)C1)OC1CCCCC1` [P-0025, cyclohexyl (S)-(1-(5-chloro-6-oxo-1,6-dihydropyridazin-4-yl)pyrrolidin-3-yl)carbamate], 0.001 to 10 µM.
`CCOC(=O)CCNC(=O)N[C@@H]1CCN(c2cn[nH]c(=O)c2Cl)C1` [P-0026, ethyl (R)-3-(3-(1-(5-chloro-6-oxo-1,6-dihydropyridazin-4-yl)pyrrolidin-3-yl)ureido)propanoate] gave an IC50 of 10 to 100 µM.
As to `Cc1noc(C)c1NC(=O)N[C@@H]1CCN(c2cn[nH]c(=O)c2Cl)C1` [P-0027, (R)-1-(1-(5-chloro-6-oxo-1,6-dihydropyridazin-4-yl)pyrrolidin-3-yl)-3-(3,5-dimethylisoxazol-4-yl)urea], the IC50 lay in the range of 0.001 to 10 µM.
`O=C(Nc1cccc(C(F)(F)F)c1)N[C@@H]1CCN(c2cn[nH]c(=O)c2Cl)C1` [P-0028, (R)-1-(1-(5-chloro-6-oxo-1,6-dihydropyridazin-4-yl)pyrrolidin-3-yl)-3-(3-(trifluoromethyl)phenyl)urea] displayed a half-inhibitory concentration (IC50) of 10 to 100 µM.
To `O=C(NC1CCOCC1)N[C@@H]1CCN(c2cn[nH]c(=O)c2Cl)C1` [P-0029, (R)-1-(1-(5-chloro-6-oxo-1,6-dihydropyridazin-4-yl)pyrrolidin-3-yl)-3-(tetrahydro-2H-pyran-4-yl)urea] belongs 0.001 to 10 µM.
In the case of `O=C(NCc1ccccc1)N[C@@H]1CCN(c2cn[nH]c(=O)c2Cl)C1` [P-0031, (R)-1-benzyl-3-(1-(5-chloro-6-oxo-1,6-dihydropyridazin-4-yl)pyrrolidin-3-yl)urea], the IC50 is 10 to 100 µM.
To `O=C(NCCc1ccccc1)N[C@@H]1CCN(c2cn[nH]c(=O)c2Cl)C1` [P-0032, (R)-1-(1-(5-chloro-6-oxo-1,6-dihydropyridazin-4-yl)pyrrolidin-3-yl)-3-phenethylurea] belongs 10 to 100 µM; to `COc1cccc(NC(=O)N[C@@H]2CCN(c3cn[nH]c(=O)c3Cl)C2)c1` [P-0033, (R)-1-(1-(5-chloro-6-oxo-1,6-dihydropyridazin-4-yl)pyrrolidin-3-yl)-3-(3-methoxyphenyl)urea], 10 to 100 µM.
`CCOc1ccc(NC(=O)N[C@@H]2CCN(c3cn[nH]c(=O)c3Cl)C2)cc1` [P-0034, (R)-1-(1-(5-chloro-6-oxo-1,6-dihydropyridazin-4-yl)pyrrolidin-3-yl)-3-(4-ethoxyphenyl)urea]: the IC50 was in the range of 10 to 100 µM.
With `CCOc1cccc(NC(=O)N[C@@H]2CCN(c3cn[nH]c(=O)c3Cl)C2)c1` [P-0035, (R)-1-(1-(5-chloro-6-oxo-1,6-dihydropyridazin-4-yl)pyrrolidin-3-yl)-3-(3-ethoxyphenyl)urea], the IC50 was in the range of 10 to 100 µM.
`CC(C)(C)OC(=O)N[C@@H]1CCN(c2cn[nH]c(=O)c2C#N)C1` [P-0036, tert-butyl (R)-(1-(5-cyano-6-oxo-1,6-dihydropyridazin-4-yl)pyrrolidin-3-yl)carbamate] returned an IC50 of 0.001 to 10 µM.
With `CC(C)(C)OC(=O)N[C@@H]1CCN(c2cn[nH]c(=O)c2)C1` [P-0037, tert-butyl (R)-(1-(6-oxo-1,6-dihydropyridazin-4-yl)pyrrolidin-3-yl)carbamate] the figure was 10 to 100 µM; with `O=C(Nc1ccccc1)N[C@@H]1CCN(c2cn[nH]c(=O)c2Cl)C1` [P-0038, (R)-1-(1-(5-chloro-6-oxo-1,6-dihydropyridazin-4-yl)pyrrolidin-3-yl)-3-phenylurea], 0.001 to 10 µM.
`COc1ccc(CNC(=O)N[C@@H]2CCN(c3cn[nH]c(=O)c3Cl)C2)cc1OC` [P-0040, (R)-1-(1-(5-chloro-6-oxo-1,6-dihydropyridazin-4-yl)pyrrolidin-3-yl)-3-(3,4-dimethoxybenzyl)urea]: the IC50 lay in the range of 10 to 100 µM.

(Values after US12509444B2, “Compounds and methods for CD73 modulation and indications therefor” (Plexxikon Inc., priority 2019, dated 2025).)
